From patent US20140369943A1, “COMPOSITIONS COMPRISING ISOSORBIDE MONOESTERS AND HALOGENATED ANTIMICROBIAL ACTIVE COMPOUNDS” (CLARIANT INTERNATIONAL LTD., priority 2011, published 2014)
Entries after “also recorded” stand apart in the source; their conditions may differ. Like-named read-outs stand apart in the source and are kept apart here.

Legend:
[1] = test system: Staphylococcus aureus; experiment: MIC determination in agar (antimicrobial efficacy); type: cell-based; settings: MIC of bronopol alone, CASO agar pH 7, corrected for dilution
Description: (§1) Below, the antimicrobial efficacy of a composition according to the invention consisting of 20% by weight of isorbide caprylate 1 and 80% by weight of a 10% by weight strength solution of 2-bromo-2-nitropropane-1,3-diol (bronopol) in water against bacteria, fungi and yeasts is examined (hereinbelow, the composition is referred to as “composition A”). For the tests with bacteria, composition A was diluted with butyl polyglycol and then, at 50° C., added to liquid CASO agar (casein-peptone agar) buffered to pH 7 (+1-0.2) in various concentrations (hereinbelow referred to as compositions B1, B2, etc.). For the tests with fungi and yeasts, composition A was diluted with butyl polyglycol and then added to liquid Sabouraud 4% dextrose agar buffered to pH 5.6 (+1-0.2) in various concentrations (hereinbelow referred to as compositions PH1, PH2, etc.). […]
(§2) The minimum inhibitory concentrations for the pure substances isosorbide caprylate 1 and bronopol were determined analogously.
(§3) The values determined for the minimum inhibitory concentrations “MIC mixture”, stated in Table 1 below, are based on the concentrations of composition A.
(§4) The values determined for the minimum inhibitory concentrations “QA” and “QB”, stated in Table 1 below, have already been corrected for the dilution effect of the water and the butyl polyglycol. […]

[2] = test system: Pseudomonas oleovorans; experiment: MIC determination in agar (antimicrobial efficacy); type: cell-based; settings: MIC of bronopol alone, CASO agar pH 7, corrected for dilution
Description: as §1, §2, §3, §4

[3] = test system: Pseudomonas aeruginosa; experiment: MIC determination in agar (antimicrobial efficacy); type: cell-based; settings: MIC of bronopol alone, CASO agar pH 7, corrected for dilution
Description: (§5) Below, the antimicrobial efficacy of a composition according to the invention consisting of 20% by weight of isorbide caprylate 1 and 80% by weight of a 10% by weight strength solution of 2-bromo-2-nitropropane-1,3-diol (bronopol) in water against bacteria, fungi and yeasts is examined (hereinbelow, the composition is referred to as “composition A”). For the tests with bacteria, composition A was diluted with butyl polyglycol and then, at 50° C., added to liquid CASO agar (casein-peptone agar) buffered to pH 7 (+1-0.2) in various concentrations (hereinbelow referred to as compositions B1, B2, etc.). For the tests with fungi and yeasts, composition A was diluted with butyl polyglycol and then added to liquid Sabouraud 4% dextrose agar buffered to pH 5.6 (+1-0.2) in various concentrations (hereinbelow referred to as compositions PH1, PH2, etc.). The compositions B1, B2, etc. and PH1, PH2 etc. were each poured into Petri dishes and each inoculated with identical amounts of bacteria, fungi and yeasts. The minimum inhibitory concentration (MIC) is the concentration at which inhibition of the growth of the bacteria, fungi and yeasts in the compositions B1, B2, etc. and PH1, PH2, etc. occurs.
as §2, §3
(§6) The values determined for the minimum inhibitory concentrations “QA” and “QB”, stated in Table 1 below, have already been corrected for the dilution effect of the water and the butyl polyglycol.
(§7) Kull et al., Applied Microbiology 1961, 9, 538 using the formula below: […]
(§8) where • Qa is the minimum inhibitory concentration of isosorbide caprylate 1 in the mixture employed, • QA is the minimum inhibitory concentration of isosorbide caprylate 1, • Qb is the minimum inhibitory concentration of bronopol in the mixture employed and • QB is the minimum inhibitory concentration of bronopol.
(§9) The values for Qa and Qb are determined from the values for the mixtures (“MIC mixture”) by multiplying the minimum inhibitory concentrations determined for Qa with the factor 0.2 and for Qb with the factor 0.08, because of the proportions of the ingredients—20% by weight of isosorbide caprylate 1 and 8% by weight of bronopol—in composition A according to the invention examined.
(§10) If an SE value >1 is obtained, an antagonistic effect is present.

[4] = test system: Aspergillus brasiliensis; experiment: MIC determination in agar (antimicrobial efficacy); type: cell-based; settings: MIC of bronopol alone, Sabouraud 4% dextrose agar pH 5.6, corrected for dilution
Description: as §5, §2, §3, §6, §7, §8, §9, §10

[5] = test system: Klebsiella pneumoniae; experiment: MIC determination in agar (antimicrobial efficacy); type: cell-based; settings: MIC of bronopol alone, CASO agar pH 7, corrected for dilution
Description: as §5, §2, §3, §6, §7, §8, §9, §10

[6] = test system: Fusarium solani; experiment: MIC determination in agar (antimicrobial efficacy); type: cell-based; settings: MIC of bronopol alone, Sabouraud 4% dextrose agar pH 5.6, corrected for dilution
Description: as §5, §2, §3, §6, §7, §8, §9, §10

[7] = test system: Candida albicans; experiment: MIC determination in agar (antimicrobial efficacy); type: cell-based; settings: MIC of bronopol alone, Sabouraud 4% dextrose agar pH 5.6, corrected for dilution
Description: as §5, §2, §3, §6, §7, §8, §9, §10

[8] = test system: Escherichia coli; experiment: MIC determination in agar (antimicrobial efficacy); type: cell-based; settings: MIC of bronopol alone, CASO agar pH 7, corrected for dilution
Description: as §5, §2, §3, §6, §7, §8, §9, §10

[9] = test system: Enterobacter aerogenes; experiment: MIC determination in agar (antimicrobial efficacy); type: cell-based; settings: MIC of bronopol alone, CASO agar pH 7, corrected for dilution
Description: as §5, §2, §3, §6, §7, §8, §9, §10

[10] = test system: Penicillium funicolosium; experiment: MIC determination in agar (antimicrobial efficacy); type: cell-based; settings: MIC of bronopol alone, Sabouraud 4% dextrose agar pH 5.6, corrected for dilution
Description: as §5, §2, §3, §6, §7, §8, §9, §10

[11] = test system: Proteus vulgaris; experiment: MIC determination in agar (antimicrobial efficacy); type: cell-based; settings: MIC of bronopol alone, CASO agar pH 7, corrected for dilution
Description: as §5, §2, §3, §6, §7, §8, §9, §10

[12] = test system: Penicillium minioluteum; experiment: MIC determination in agar (antimicrobial efficacy); type: cell-based; settings: MIC of bronopol alone, Sabouraud 4% dextrose agar pH 5.6, corrected for dilution
Description: as §5, §2, §3, §6, §7, §8, §9, §10

[13] = test system: Aspergillus terreus; experiment: MIC determination in agar (antimicrobial efficacy); type: cell-based; settings: MIC of bronopol alone, Sabouraud 4% dextrose agar pH 5.6, corrected for dilution
Description: as §5, §2, §3, §6, §7, §8, §9, §10

[14] = test system: Citrobacter freundii; experiment: MIC determination in agar (antimicrobial efficacy); type: cell-based; settings: MIC of bronopol alone, CASO agar pH 7, corrected for dilution
Description: as §5, §2, §3, §6, §7, §8, §9, §10

[15] = test system: bacteria, fungi and yeasts; settings: general statement, no data given, cited from earlier work
[16] = test system: bacteria, fungi and yeasts; experiment: antimicrobial activity, overall statements in words; type: cell-based
Description: as §5

**Q.** What does the source list for `O=[N+]([O-])C(Br)(CO)CO` [bronopol, 2-bromo-2-nitropropane-1,3-diol]?
**A.** QB, meas. [1]: 75 ppm; QB, meas. [2]: 50 ppm; QB, meas. [3]: 75 ppm; QB, meas. [4]: 500 ppm; QB, meas. [5]: 50 ppm; QB, meas. [6]: 500 ppm; QB, meas. [7]: 500 ppm; QB, meas. [8]: 50 ppm; QB, meas. [9]: 75 ppm; QB, meas. [10]: 150 ppm; QB, meas. [11]: 50 ppm; QB, meas. [12]: 500 ppm; QB, meas. [13]: 1000 ppm; QB, meas. [14]: 50 ppm

**Q.** Which antimicrobial activity ([15]; at a pH of 6 or above) does the source give for `CCCCCCCC(=O)O` [caprylic acid] here?
**A.** no antimicrobial activity

**Q.** And the antimicrobial efficacy [15]?
**A.** antimicrobially effective

**Q.** What about the “antimicrobial efficacy as constituent of isosorbide caprylate 1” value ([16]; present in an amount of only 0.4% by weight) of the same compound?
**A.** so low that it is negligible; also recorded: lack of antimicrobial activity

**Q.** For `O[C@@H]1CO[C@H]2[C@@H]1OC[C@@H]2O` [isosorbide], which antimicrobial activity ([16]; overall conclusion in words from Tables 1 and 2) is on record?
**A.** neither isosorbide nor isosorbide dicaprylate are antimicrobially active; also recorded: lack of antimicrobial activity

**Q.** Which antimicrobial activity ([16]; concluded from activity of isosorbide caprylate 1 and inactivity of its other constituents) does the source give for isosorbide monocaprylate here?
**A.** significant antimicrobial activity
